Test results published in patent publication US7550469B2, “Heterocyclic amide derivatives and their use as dopamine D3 receptor ligands” (Aventis Pharmaceuticals Inc., priority 2001, dated 2009).

How the values were obtained:
[1] = target: T1, cloned human alpha-1A adrenergic receptors (α1a) (Homo sapiens, UniProt P35348); experiment: [3H]Prazosin binding to cloned human alpha-1A adrenergic receptors expressed in CHO cells; conditions: human α-1; 6-fluoro vs 6-trifluoromethyl benzo[b]thiophene pairs; read-out: halpha 1 Ki (nM) h = human
T1 construct: expressed in transfected cells; host or cells: CHO cells, G418-resistant clone, pcDNA3 vector; membrane fragments
T1 sequence (P35348 1-466): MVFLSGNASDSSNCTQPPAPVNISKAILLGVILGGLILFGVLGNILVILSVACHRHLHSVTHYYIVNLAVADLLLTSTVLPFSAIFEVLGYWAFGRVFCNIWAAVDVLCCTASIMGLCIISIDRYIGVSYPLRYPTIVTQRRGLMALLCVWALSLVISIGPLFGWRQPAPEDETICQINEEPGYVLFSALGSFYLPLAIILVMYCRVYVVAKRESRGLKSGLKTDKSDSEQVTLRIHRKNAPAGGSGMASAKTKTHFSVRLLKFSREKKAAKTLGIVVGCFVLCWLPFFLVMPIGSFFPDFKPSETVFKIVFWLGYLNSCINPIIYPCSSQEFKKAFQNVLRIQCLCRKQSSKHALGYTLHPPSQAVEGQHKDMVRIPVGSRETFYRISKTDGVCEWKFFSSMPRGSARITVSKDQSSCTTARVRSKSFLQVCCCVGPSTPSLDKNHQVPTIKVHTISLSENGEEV
Text: ^3H]PRAZOSIN BINDING TO CLONED HUMAN ALPHA-1A ADRENERGIC RECEPTORS (α1a) EXPRESSED IN CHINESE HAMSTER OVARY CELLS (CHO)
Purpose: This in vitro assay is designed as a screen to identify compounds displaying a affinity for the human α1a adrenoceptor subtype expressed in the membrane fragments of CHO cells. The assay measures the ability of the test compounds to displace [^3H] prazosin from α1a sites. • The identification of multiple vascular α1-addrenoceptors (α1a, α1b, α1d) in vitro has provided impetus to define the role(s) of these subtypes in cardiovascular regulation in vivo (Vargas and Gorman, 1995). […] Prazosin is a potent antagonist of the human α1a-adrenoceptor subtype, which has been cloned and is expressed in the membrane fragments of CHO cells. hα1a Receptor: The cloning of the human α1a cDNA was accomplished first by screening a human prostate cDNA library (Clontech), from which a portion of the coding region was obtained. This DNA fragment was then used to screen a human leukocyte genomic library (Clontech), and the rest of the coding sequence was obtained. Later these two fragments were spliced together. The entire coding sequence was then fully sequenced including matching PCR sequence with original genomic coding sequence, thus ensuring splice sites were joined correctly (Schwinn et al., 1995). Once sequenced, the gene was subcloned into the expression vector pcDNA3 (Invitrogen). Plasmid DNA was then used for transfection into CHO cells and G418 resistant clones were isolated. A clone expressing high levels of the hα1a receptor (as determined by mRNA and receptor binding data) was chosen and pharmacologically characterized. Culture Media: Media Ingredients for Adherent α1a expressing CHO Culture: • A. HAM's F-12 (Cellgro) • B. 10% 0.2 micron filtered Fetal Bovine Serum (FBS)(Cellgro) • C. 1% 0.2 micron filtered Penicillin-Streptomycin (Celigro) • D. G418 0.2 micron filtered (Geneticin 400 μg/ml)(Cellgro) • Cells are cultured using established methods and procedures in either 150×25 mm culture plates (scale up to 100 plates) or a combination of these plates and 70 roller bottles. One culturing/harvest cycle typically requires 2 weeks and yields between 100-400 mg protein. Plates or bottles are incubated at 37° C.+5% CO2. Storage: Cells are harvested by mechanical scraping, washed using PBS, collected in 250 ml Corning polypropylene centrifuge tubes, spun down (1500RPM) and resuspended in dH2O 10% DMSO (final volume per harvest is approximately 50 ml). Protein determination is made using the Biorad DC Assay Kit. Finally, the appropriate volume is aliquoted into a 2 ml Corning Cryovial (10 mg/1-1.5 ml) which is stored at −80° C. Current Lot Data:
Assay Requirement: 0.5 cryovials per 96 well plate (assay volume=200 μl/well) [^3H]-Ligand: [7-methoxy-^3H]-Prazosin: 1.0 nM (NEN, NET-823) • 70-87 Ci/mmol Materials: Phentolamine mesylate (Research Biochemicals Int. #P-131) • 96 well flat bottom plates (Beckman) • Unifilter GF/B Plate (Packard) • Polyethylenimine (Sigma #P-3134) • TomTec or Packard Filtermate 196 Cell Harvesters • Packard TopCount Scintillation Counter Buffers: A: 50 mM Tris HCl; 0.1% ascorbate, pH 7.7 (incubation buffer) • B: 50 mM Tris HCl; pH 7.7 (wash buffer) Procedure: Assay additions are as follows (in the order indicated): • Total Binding=50 μl buffer A+50 μl [^3H]prazosin+100 μl membrane • Nonsp. Bd.=50 μl 10 μM phentolamine+50 μl [^3H]prazosin+100 μl membrane • Test Cpd.=50 μl compound+50 μl [^3H]prazosin+100 μl membrane • Compounds to be evaluated are weighed out to yield a 10 mM stock solution in DMSO in a 24 well polystyrene plate. This is diluted to a 0.5 mM stock in dH2O. Serial dilutions in Buffer A are made from which 50 μl additions to the plate are made in duplicate in order to achieve the final concentrations desired. Typically, one 96 well plate is used to evaluate 11 compounds at 4 concentrations (10^−6-10^−9 M) in duplicate. […]

Structure (SMILES) | melting point | Ki [1]
Cl.c1cc2onc(C3CCNCC3)c2s1 | 263 to 265 °C | 
O=C(NCCCCN1CCN(c2csc3cc(F)ccc23)CC1)c1ccc(-c2ccccc2)cc1 [813585A] |  | 5.67 nM
